Results reported in ChEMBL document CHEMBL4316582, “Nitro-Group-Containing Drugs” (J Med Chem, 2019).
≈ marks a conversion by molar mass, not a printed value.

Legend:
[1] = molecular target: T1, Oxygen-insensitive NAD(P)H nitroreductase (Escherichia coli K-12, UniProt P38489); assay: Susbtrate activity at Escherichia coli nitroreductase assessed as half life; assay type: ADME
T1 sequence (P38489 whole entry): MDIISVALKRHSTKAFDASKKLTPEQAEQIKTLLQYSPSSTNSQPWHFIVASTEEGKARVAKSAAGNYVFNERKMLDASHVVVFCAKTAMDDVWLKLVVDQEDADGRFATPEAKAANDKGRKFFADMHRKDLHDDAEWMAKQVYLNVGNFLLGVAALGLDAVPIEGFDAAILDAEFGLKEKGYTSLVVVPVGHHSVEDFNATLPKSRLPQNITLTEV

NCI-H460 [2] = assay: Cytotoxicity against human NCI-H460 cells assessed as reduction in cell viability after 2 hrs under normoxic conditions by Alamar blue assay; assay type: functional, cell-based; details: NCI-H460, 2 h
NCI-H460 [3] = assay: Cytotoxicity against human NCI-H460 cells assessed as reduction in cell viability after 2 hrs under hypoxic conditions by Alamar blue assay; assay type: functional, cell-based; details: NCI-H460, 2 h
NCI-H460 [4] = assay: Antiproliferative activity against human NCI-H460 cells in presence of O2; assay type: functional, cell-based
NCI-H460 [5] = assay: Antiproliferative activity against human NCI-H460 cells; assay type: functional, cell-based
NCI-H460 [6] = assay: Antiproliferative activity against human NCI-H460 cells in presence of N2; assay type: functional, cell-based
[7] = test system: Mycobacterium tuberculosis; assay: Antitubercular activity against drug-sensitive Mycobacterium tuberculosis; assay type: functional
[8] = test system: Mycobacterium tuberculosis; assay: Antitubercular activity against Mycobacterium tuberculosis; assay type: functional
HT-29 [9] = assay: Cytotoxicity against human HT-29 cells assessed as reduction in cell viability after 2 hrs by Alamar blue assay; assay type: functional, cell-based; details: HT-29, 2 h
[10] = Cytotoxicity against human MiaPaCa cells assessed as reduction in cell viability after 2 hrs by Alamar blue assay; assay type: functional, cell-based; details: MIA PaCa-2, 2 h
NCI-H460 [11] = assay: Cytotoxicity against human NCI-H460 cells assessed as reduction in cell viability after 2 hrs by Alamar blue assay; assay type: functional, cell-based; details: NCI-H460, 2 h
Hep 3B2 [12] = assay: Cytotoxicity against human Hep3B cells after 24 hrs by MTS assay; assay type: functional, cell-based
Hep 3B2 [13] = assay: Cytotoxicity against human Hep3B cells after 24 hrs under hypoxic condition by MTS assay; assay type: functional, cell-based
[14] = test system: Mycobacterium tuberculosis; assay: Antitubercular activity against Mycobacterium tuberculosis H37Ra after 8 days by visual analysis; assay type: functional; details: 192 h
SK-OV-3 = assay: Cytotoxicity against human SKOV3 cells; assay type: functional, cell-based
HT-29 [15] = assay: Cytotoxicity against human HT-29 cells; assay type: functional, cell-based
[16] = molecular target: Epidermal growth factor receptor (Homo sapiens, UniProt P00533); assay: Inhibition of erbB1 (unknown origin) using FRET-capable peptide substrate by FRET assay
Sequence of Epidermal growth factor receptor (P00533 whole entry): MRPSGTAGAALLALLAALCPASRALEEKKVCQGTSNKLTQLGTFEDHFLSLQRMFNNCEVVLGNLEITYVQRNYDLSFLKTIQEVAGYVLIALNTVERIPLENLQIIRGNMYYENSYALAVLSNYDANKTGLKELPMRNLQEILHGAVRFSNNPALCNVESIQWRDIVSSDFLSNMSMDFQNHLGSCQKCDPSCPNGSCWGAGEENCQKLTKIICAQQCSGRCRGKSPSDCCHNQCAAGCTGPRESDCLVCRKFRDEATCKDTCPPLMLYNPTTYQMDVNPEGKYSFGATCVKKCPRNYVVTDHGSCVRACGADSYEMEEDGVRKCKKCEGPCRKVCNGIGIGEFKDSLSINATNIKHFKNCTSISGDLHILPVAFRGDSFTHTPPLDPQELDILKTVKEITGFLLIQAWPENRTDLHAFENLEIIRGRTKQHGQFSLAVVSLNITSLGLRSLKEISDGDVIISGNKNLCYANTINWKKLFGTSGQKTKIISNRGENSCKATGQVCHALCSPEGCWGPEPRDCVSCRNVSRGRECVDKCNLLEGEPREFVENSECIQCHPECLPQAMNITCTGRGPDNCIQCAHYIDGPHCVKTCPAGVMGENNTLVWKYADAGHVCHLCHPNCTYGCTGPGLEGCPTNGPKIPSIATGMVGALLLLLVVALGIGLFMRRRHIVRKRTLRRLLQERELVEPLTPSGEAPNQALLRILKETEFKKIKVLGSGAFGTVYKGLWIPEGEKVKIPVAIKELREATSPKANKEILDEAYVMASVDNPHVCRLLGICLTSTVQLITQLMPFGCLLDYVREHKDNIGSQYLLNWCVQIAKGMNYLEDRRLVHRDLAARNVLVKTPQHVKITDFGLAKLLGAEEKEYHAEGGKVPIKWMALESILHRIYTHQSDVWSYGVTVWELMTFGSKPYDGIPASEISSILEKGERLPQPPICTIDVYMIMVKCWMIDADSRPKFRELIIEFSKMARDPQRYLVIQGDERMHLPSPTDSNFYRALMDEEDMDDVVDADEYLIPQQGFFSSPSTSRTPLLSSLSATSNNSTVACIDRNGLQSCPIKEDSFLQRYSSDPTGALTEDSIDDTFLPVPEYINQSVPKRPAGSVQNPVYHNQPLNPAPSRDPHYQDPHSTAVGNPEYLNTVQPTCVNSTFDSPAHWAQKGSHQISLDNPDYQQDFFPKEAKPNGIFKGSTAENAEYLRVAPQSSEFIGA

NCI-H460 [17] = assay: Ratio of IC50 for antiproliferative activity against human NCI-H460 cells in presence of O2 to antiproliferative activity against human NCI-H460 cells in presence of N2; assay type: functional

`O=[N+]([O-])c1ccc2c(c1)NP(=O)(N(CCCl)CCCl)NC2` (stereo unspecified) gave a half-life [1] of 7.8 min.

`COc1cccc2c1C(=O)c1c(O)c3c(c(O)c1C2=O)C[C@@](O)(C(C)=O)C[C@@H]3O[C@H]1C[C@H](N(COCCn2ccnc2[N+](=O)[O-])COCCn2ccnc2[N+](=O)[O-])[C@H](O)[C@H](C)O1` gave an IC50 (NCI-H460 [2]) of 20 µM and an IC50 (NCI-H460 [3]) of 0.05 µM.

`Cn1c(COP(=O)(NCCBr)NCCBr)cnc1[N+](=O)[O-]` [EVOFOSFAMIDE] gave an IC50 (NCI-H460 [4]) of 25 µM, an IC50 (NCI-H460 [5]) greater than 100 µM and an IC50 (NCI-H460 [6]) of 2 µM.

With `O=[N+]([O-])C1CN2C[C@H](OCc3ccc(OC(F)(F)F)cc3)COC2=N1` (stereo partly specified) the MIC [7] was 0.039 to 0.531 µg/mL (≈ 0.108 to 1.47 µM) and the MIC [8] was less than 2.8 µM.

Compound `CC#Cc1c(OC)ccc2c(C(=O)c3cc(OC)c(OC)c(OC)c3)nn(C[N+](C)(C)Cc3c(-c4ccc(F)cc4)nc([N+](=O)[O-])n3C)c12` has an IC50 (HT-29 [9]) of 0.025 µM, an IC50 [10] of 0.025 µM and an IC50 (NCI-H460 [11]) of 0.031 µM.

`COc1ccc(C[C@@H](C)[C@@H](C)Cc2ccc(OC)c(OCCOCCOCCOCCn3cnc([N+](=O)[O-])c3)c2)cc1OC` gave an IC50 (Hep 3B2 [12]) of 13 µM and an IC50 (Hep 3B2 [13]) of 64.3 µM.

For `COc1ccc(CNC(=O)c2ccc([N+](=O)[O-])o2)cc1OC`, the MIC [14] was 0.2 µM (≈ 0.0613 µg/mL).

For `CN(C)CCOc1ccc2[nH]c(C(=O)N3CC(CCl)c4c3cc([N+](=O)[O-])c3c(C#N)cccc43)cc2c1` (stereo unspecified), the IC50 (SK-OV-3) was 0.17 µM and the IC50 (HT-29 [15]) was 0.12 µM.

Compound `CC(OP(=O)(NCCBr)NCCBr)c1ccc([N+](=O)[O-])s1` (stereo unspecified) has an IC50 (NCI-H460 [4]) of 0.2 µM, an IC50 (NCI-H460 [5]) of 0.5 µM and an IC50 (NCI-H460 [6]) of 0.03 µM.

Compound `CC(=O)O[C@H]1C(=O)[C@@]2(C)[C@H]([C@H](OC(=O)c3ccccc3)[C@]3(O)C[C@H](OC(=O)[C@H](OC(=O)N(C)CCN(C)C(=O)OCc4ccc([N+](=O)[O-])c(Oc5ccc6ncccc6c5)c4)[C@@H](NC(=O)c4ccccc4)c4ccccc4)C(C)=C1C3(C)C)[C@]1(OC(C)=O)CO[C@@H]1C[C@@H]2O` has an IC50 (NCI-H460 [5]) of 0.03 µM.

For `Cn1cc([N+](=O)[O-])nc1C[N+](C)(C)C/C=C/C(=O)Nc1ccc2ncnc(Nc3cccc(Br)c3)c2c1`, the IC50 [16] was 0.00022 to 0.00056 µM.

`COc1ccc(C[C@@H](C)[C@@H](C)Cc2ccc(OCCOCCOCCOCCn3ccnc3[N+](=O)[O-])c(OC)c2)cc1OC` showed an IC50 (Hep 3B2 [12]) of 13.4 µM and an IC50 (Hep 3B2 [13]) of 13.4 µM.

In the case of `Cc1cc(COP(N)(=O)N(CCCl)CCCl)ccc1[N+](=O)[O-]` (stereo unspecified), the IC50 (SK-OV-3) is reported as 3.3 µM.

Work on `COc1cc(COP(N)(=O)N(CCCl)CCCl)ccc1[N+](=O)[O-]` (stereo unspecified) yielded an IC50 (SK-OV-3) of 3.1 µM.

With `CC#Cc1c(OC)ccc2c(C(=O)c3cc(OC)c(OC)c(OC)c3)nn(C[N+](C)(C)Cc3c(Br)nc([N+](=O)[O-])n3C)c12` the IC50 (HT-29 [9]) was 0.01 µM, the IC50 [10] was 0.028 µM and the IC50 (NCI-H460 [11]) was 0.028 µM.

Work on `CC#Cc1c(OC)ccc2c(C(=O)c3cc(OC)c(OC)c(OC)c3)nn(Cn3cc[n+](Cc4ccc([N+](=O)[O-])o4)c3)c12` yielded an IC50 (HT-29 [9]) of 0.001 µM and an IC50 (NCI-H460 [11]) of 0.014 µM.

Compound `CC#Cc1c(OC)ccc2c(C(=O)c3cc(OC)c(OC)c(OC)c3)nn(C[N+](C)(C)Cc3c(-c4ccccc4)nc([N+](=O)[O-])n3C)c12` has an IC50 (HT-29 [9]) of 0.006 µM, an IC50 [10] of 0.016 µM and an IC50 (NCI-H460 [11]) of 0.012 µM.

For `NC(=O)c1ccc([N+](=O)[O-])c(N2CC2)n1`, the IC50 (NCI-H460 [4]) was 61 µM, the “Ratio IC50” value (NCI-H460 [17]) was 35.9 and the IC50 (NCI-H460 [6]) was 1.7 µM.

Compound `COC(=O)c1cc(COP(N)(=O)N(CCCl)CCCl)ccc1[N+](=O)[O-]` (stereo unspecified) has an IC50 (SK-OV-3) of 2.1 µM.

Compound `COc1cc2cc(C(=O)N3CC(CCl)c4c3cc([N+](=O)[O-])c3c(C(C)=O)cccc43)[nH]c2c(OC)c1OC` (stereo unspecified) has an IC50 (SK-OV-3) of 0.5 µM and an IC50 (HT-29 [15]) of 0.68 µM.

In the case of `NC(=O)c1ccnc(N2CC2)c1[N+](=O)[O-]`, the IC50 (NCI-H460 [4]) is reported as 142 µM, the “Ratio IC50” value (NCI-H460 [17]) is reported as 52.5 and the IC50 (NCI-H460 [6]) is reported as 2.7 µM.

`Cn1c(COP(=O)(N(CCCl)CCCl)N(CCCl)CCCl)ccc1[N+](=O)[O-]` showed an IC50 (NCI-H460 [4]) of 0.85 µM, an IC50 (NCI-H460 [5]) greater than 1 µM and an IC50 (NCI-H460 [6]) of 0.007 µM.

Work on `Cn1ncc([N+](=O)[O-])c1C[N+](C)(C)C/C=C/C(=O)Nc1ccc2ncnc(Nc3cccc(Br)c3)c2c1` yielded an IC50 [16] of 0.00022 to 0.00056 µM.

In the case of `NC(=O)c1cnc(N2CC2)c([N+](=O)[O-])c1`, the IC50 (NCI-H460 [4]) is reported as 143 µM, the “Ratio IC50” value (NCI-H460 [17]) is reported as 62 and the IC50 (NCI-H460 [6]) is reported as 2.3 µM.

Work on `COc1cccc2c1C(=O)c1c(O)c3c(c(O)c1C2=O)C[C@@](O)(C(C)=O)C[C@@H]3O[C@H]1C[C@H](NCCCCn2ccnc2[N+](=O)[O-])[C@H](O)[C@H](C)O1` yielded an IC50 (NCI-H460 [2]) of 5.7 µM and an IC50 (NCI-H460 [3]) of 0.004 µM.
